According to publication PMC10706425, “Enhancing the Antimicrobial Properties of Peptides through Cell-Penetrating Peptide Conjugation: A Comprehensive Assessment” (International Journal of Molecular Sciences, 2023):

Experiments:
bacteria = test: Antibacterial activity of amyloidogenic fragments alone (bacteria not given); format: cell-based; conditions: Table 2 and Table S1
E. coli (K12 strain) = test: Antibacterial activity in liquid medium; format: cell-based, Escherichia coli; conditions: K12 strain; Mueller–Hinton broth, 37 °C, 2% DMSO
Text: (§1) Two S. aureus strains were used: a susceptible strain 209P and a clinical isolate strain 129B (resistant to antibiotics: benzylpenicillin, clindamycin, erythromycin, oxacillin, sulfamethoxazole, and vancomycin). Two MRSA strains were included: a susceptible strain ATCC 43300 (resistant to antibiotics: methicillin, oxacillin (beta-lactam antibiotics), ampicillin (https://www.atcc.org/products/43300 (accessed on 11 November 2023)) and a clinical isolate strain SA 180 (resistant to antibiotics: benzylpenicillin and oxacillin (beta-lactam antibiotics), ciprofloxacin, clindamycin, erythromycin, levomycetin, sulfamethoxazole, and vancomycin). One B. cereus was used: a susceptible strain, IP 5832. Two P. aeruginosa strains were included: a susceptible strain, ATCC 28753, and a resistant strain, 2943. Two E. coli strains were used: a susceptible strain, K12, and a susceptible strain, MG1655.
(§2) Determination of the growth for the bacteria S. aureus strain 209P, MRSA strain ATCC 43300, B. cereus strain IP 5832, P. aeruginosa strain ATCC 28753, and E. coli strain K12 was performed using Mueller–Hinton Broth (MHB) (Sigma-Aldrich, St. Louis, MO, USA). Bacteria of S. aureus (strain 129B) and MRSA (strain SA 180-F) were grown on the brain-heart infusion (BHI) medium, and bacteria of P. aeruginosa (strain 2943) and E. coli (strain MG1655) were grown on the LB medium. The preparation and co-incubation of peptides with bacteria were carried out as described previously. The samples were grown at 37 °C.

S. aureus (209P strain) = test: Antibacterial activity in liquid medium; format: cell-based, Staphylococcus aureus; conditions: 209P strain; Mueller–Hinton broth, 37 °C, 2% DMSO
Text: as §1, §2

MRSA (ATCC 43300 strain) = test: Antibacterial activity in liquid medium; format: cell-based, Methicillin-resistant Staphylococcus aureus; conditions: ATCC 43300 strain; Mueller–Hinton broth, 37 °C, 2% DMSO
Text: as §1, §2

ITDFGIFIGL [I10L^P]
913 µM: Concentration with antibacterial activity, amyloidogenic fragment alone (bacteria) | Peptide Activity in Liquid Medium after 15 h of Incubation (Gentamicin as Positive Control) (E. coli (K12 strain)) | Peptide Activity in Liquid Medium after 15 h of Incubation (Gentamicin as Positive Control) (S. aureus (209P strain)) | Peptide Activity in Liquid Medium after 15 h of Incubation (Gentamicin as Positive Control) (MRSA (ATCC 43300 strain))
